Laboratory results as given in EP0360937B1, “Improved process for recovering microbially produced interferonbeta” (CETUS ONCOLOGY CORPORATION, priority 1988, dated 1990).
Blank lines part the entries; values can stand above or below the compound they belong to.

Legend:
IFN-beta [1] = molecular target: T1, IFN-beta (Homo sapiens, UniProt P01574, C38S); test: Keeping IFN-beta soluble as guanidine HCl is removed by dialysis; supernatant and pellet analysed by SDS-PAGE and silver stain; format: physicochemical; design: key to Successful (+)/ Unsuccessful (-): Successful (+); Unsuccessful (-); settings: for keeping IFN-beta in solution: 15% PEG300, 25% glycerol, 50% sucrose, 20% isopropanol; for Successful (+)/ Unsuccessful (-): dialysis against sodium phosphate buffer pH 5.0
T1 construct: made in house; host or cells: E. coli K12/MM294-1 carrying plasmid pSY2501 (ATCC 39,517)
T1 sequence (P01574 23-187 C38S limits assumed): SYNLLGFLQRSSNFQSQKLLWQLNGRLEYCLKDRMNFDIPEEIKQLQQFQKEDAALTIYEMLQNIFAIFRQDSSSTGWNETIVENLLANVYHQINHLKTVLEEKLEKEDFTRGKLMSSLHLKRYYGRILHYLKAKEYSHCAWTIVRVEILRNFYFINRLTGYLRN
Experimental: At this point, a stabilizing additive was added to the oxidized IFN-beta material while guanidine HCl is still present, and the solution was dialyzed to remove the guanidine. The solubilized, oxidized material was divided into aliquots and a different stabilizing agent or a non-ionic detergent was added to each aliquot. A summary of the stabilizing agents and non-ionic detergents used in this example, as well as the concentration used, is provided in Table 1.
Each aliquot was dialyzed against 20-50 mM sodium phosphate buffer, pH 5.0 containing the appropriate stabilizer or detergent. […] Dialysis was run at pH 5.0 because rIFN-beta is more soluble at low pH than at neutral or higher pH. As the guanidine HCl was dialyzed from the sample, a precipitate formed. The aliquots were centrifuged at 5,000 x g for 15 min and both the supernatant and the pellet, resuspended in 1% SDS, were saved. The supernatant and resuspended pellet were analyzed by SDS-PAGE (PHAST system by Pharmacia) and silver stain to locate the rIFN-beta.

IFN-beta [2] = molecular target: T1, IFN-beta; test: Absorbance at 280 nm in supernatant after dialysis against glycerol, with varied concentration and pH; format: physicochemical; settings: for % A₂₈₀ in Supernatant: 25 mM NaPi

keeping IFN-beta in solution (IFN-beta [1]): keep IFN-beta in solution
Successful (+)/ Unsuccessful (-) (IFN-beta [1]; reagent at 50%): +
Compound: CC(C)O [Isopropanol]

Successful (+)/ Unsuccessful (-) (IFN-beta [1]; reagent at 5%): -
Compound: OCC(O)COc1ccccc1 (centres unmarked) [3-phenoxy-1,2-propanediol]

keeping IFN-beta in solution (IFN-beta [1]): keep IFN-beta in solution
% A₂₈₀ in Supernatant (IFN-beta [2]; 25%, pH 4): 31%
% A₂₈₀ in Supernatant (IFN-beta [2]; 25%, pH 5): 13%
% A₂₈₀ in Supernatant (IFN-beta [2]; 50%, pH 4): 86%
% A₂₈₀ in Supernatant (IFN-beta [2]; 50%, pH 5): 50%
IFN-beta solubility on adjusting concentration and pH (IFN-beta [2]; concentration increased to 50% and pH lowered to 4): greater IFN-beta solubility
Compound: OCC(O)CO [Glycerol]

keeping IFN-beta in solution, detergent combined with glycerol (IFN-beta [1]; 0.01% detergent with 25% glycerol at pH 4, A280 and SDS-PAGE): keep most of the IFN-beta in solution
Compound: Tween® 80

Successful (+)/ Unsuccessful (-) (IFN-beta [1]; reagent at 20%): -
Compound: CCC(O)CO (centres unmarked) [1,2-butanediol]

Compound: OCCO [Ethylene Glycol]
Successful (+)/ Unsuccessful (-) (IFN-beta [1]; reagent at 20%): -

Successful (+)/ Unsuccessful (-) (IFN-beta [1]; reagent at 20%): -
Compound: CC(O)CO (centres unmarked) [Propylene Glycol]

keeping IFN-beta in solution (IFN-beta [1]): keep IFN-beta in solution
Compound: OC[C@H]1O[C@@](CO)(O[C@H]2O[C@H](CO)[C@@H](O)[C@H](O)[C@H]2O)[C@@H](O)[C@@H]1O [Sucrose]
